In the experiment the target is somatostatin type 2 (SSTR2) receptors (Homo sapiens, UniProt P30874). The experiment is described as follows: PathHunter β-Arrestin assay, antagonist mode, SSTR2. Type of experiment: cell-based. The settings on record: agonist challenge at EC80. Here is the method: The PathHunter® β-Arrestin assay monitors the activation of a GPCR in a homogenous, non-imaging assay format using a technology developed by DiscoveRx called Enzyme Fragment Complementation (EFC) with β-galactosidase (β-Gal) as the functional reporter. […] EA is fused to β-Arrestin and […] is fused to the GPCR of interest. When the GPCR is activated and β-Arrestin is recruited to the receptor, ED and EA complementation occurs, restoring β-Gal activity which is measured using chemiluminescent PathHunter® Detection Reagents. For antagonist determination, cells were pre-incubated with the compounds followed by agonist challenge at the EC80 concentration. Data was normalized to the maximal and minimal response observed in the presence of EC80 ligand and vehicle. Compound activity was analyzed using CBIS data analysis suite ChemInnovation, CA). Percentage inhibition was calculated using the following formula: % Inhibition=100%×(1−(mean signal of test sample-mean signal of vehicle control)/(mean signal of EC80 control-mean signal of vehicle control)). Percentage inhibition was calculated at 10 concentrations in steps on a Log 3 scale ranging from […] to 5e-5 μM. The results were plotted for IC50 calculation.

*1 amine or outer side, *2 acyl side, *3 side chain or, on linkers, in order; H or OH if unused. Where a SMILES comes first, the peptide text is derived from it. Bridges are numbered along the chain shown (N, C = ends). Triazole bridges read from a SMILES are 1,4-linked. Side-chain parts run from the residue outwards. [ ]: non-standard residue; d: D form. The star is where a group is joined. ξ: configuration not given here. dPhe(4-CONH2) = NC(=O)c1ccc(C[C@@H](N)C(=O)O)cc1; dPhe(4-NH2) = Nc1ccc(C[C@@H](N)C(=O)O)cc1; Phe(4-Cl) = N[C@@H](Cc1ccc(Cl)cc1)C(=O)O; Dap(N3) = [N-]=[N+]=NC[C@H](N)C(=O)O; Butanoyl(3,3-Me2) = CC(C)(C)CC(=O)*; NMeY = CN[C@@H](Cc1ccc(O)cc1)C(=O)O; NH(4-MeO-phenyl) = COc1ccc(N*)cc1; dCit = NC(=O)NCCC[C@@H](N)C(=O)O; Lys(Me) = CNCCCC[C@H](N)C(=O)O; NMeK = CN[C@@H](CCCCN)C(=O)O; Succinamoyl = NC(=O)CCC(=O)*; Tle = CC(C)(C)[C@H](N)C(=O)O; Picolinoyl = O=C(c1ccccn1)*; ξY = NC(Cc1ccc(O)cc1)C(=O)O; dPra = C#CC[C@@H](N)C(=O)O; NMeC = CN[C@@H](CS)C(=O)O; dDap = NC[C@@H](N)C(=O)O; 2Furoyl = O=C(c1ccco1)*; Hexanoyl = CCCCCC(=O)*; CO = O=C([*:1])[*:2]; NHPh = c1ccc(N*)cc1

somatostatin type 2 (SSTR2) receptors, sequence (P30874 whole entry, the tested form may be a part): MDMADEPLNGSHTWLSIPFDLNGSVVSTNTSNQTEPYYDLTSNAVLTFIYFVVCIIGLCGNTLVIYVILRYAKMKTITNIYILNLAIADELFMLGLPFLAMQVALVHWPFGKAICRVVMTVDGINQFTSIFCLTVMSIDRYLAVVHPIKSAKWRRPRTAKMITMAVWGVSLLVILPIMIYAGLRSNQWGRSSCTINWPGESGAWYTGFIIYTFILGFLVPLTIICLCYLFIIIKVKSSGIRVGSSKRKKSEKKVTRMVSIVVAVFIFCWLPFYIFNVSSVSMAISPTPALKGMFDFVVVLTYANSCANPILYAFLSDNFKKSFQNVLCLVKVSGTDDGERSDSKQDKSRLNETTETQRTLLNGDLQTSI

Consider `C[C@@H](O)[C@@H]1NC(=O)[C@H](CCCCN)NC(=O)[C@@H](Cc2ccc(C(N)=O)cc2)NC(=O)[C@H](Cc2ccc(O)cc2)N(C)C(=O)[C@H](NC(=O)[C@@H](N)Cc2ccc(Cl)cc2)CSSC[C@@H](C(=O)N[C@H](Cc2ccc(O)cc2)C(N)=O)NC1=O` [Compound 74, H-Cpa-[DCys- NMeTyr-DPhe (4-carbamoyl)- Lys-Thr-Cys]- DTyr-NH2] (H-[Phe(4-Cl)][dC][NMeY][dPhe(4-CONH2)]KTC[dY]-NH2; disulfide 2-7), for which the IC50 (commonly the concentration that gives 50% inhibition) stood at 159 nM.
In turn, `CC(O)[C@@H]1NC(=O)[C@H](CCCCN)NC(=O)[C@@H](Cc2ccc(C(N)=O)cc2)NC(=O)[C@H](Cc2ccc(O)cc2)NC(=O)[C@H](NC(=O)[C@@H](N)Cc2ccc(Cl)cc2)CNC(=O)SC[C@@H](C(=O)N[C@H](Cc2ccc(O)cc2)C(N)=O)NC1=O` (stereo in doubt) [Compound 61, H-Cpa-cyclo[Dap- Tyr-DPhe (4-CONH2)- Lys-Thr-Cys]- DTyr-NH2] yielded an IC50 of more than 1000 nM.
`CC(O)[C@@H]1NC(=O)[C@H](CCCCN)NC(=O)[C@@H](Cc2ccc(C(N)=O)cc2)NC(=O)[C@H](Cc2ccc(O)cc2)NC(=O)[C@H](NC(=O)[C@@H](N)Cc2ccc(Cl)cc2)CNC(=O)SC[C@@H](C(=O)N[C@H](Cc2ccc(O)cc2)C(N)=O)NC1=O` (stereo partly drawn) [Compound 60, H-Cpa-cyclo [DDap-Tyr- DPhe(4-CONH2)- Lys-Thr-Cys]- DTyr-NH2] returned an IC50 of more than 1000 nM.
With `CCCCCC(=O)N[C@@H](Cc1ccc(Cl)cc1)C(=O)N[C@@H]1CSSC[C@@H](C(=O)N[C@H](Cc2ccc(O)cc2)C(N)=O)NC(=O)[C@H]([C@@H](C)O)NC(=O)[C@H](CCCCNC)NC(=O)[C@@H](Cc2ccc(C(N)=O)cc2)NC(=O)[C@H](Cc2ccc(O)cc2)NC1=O` [Compound 56, CH3(CH2)4(CO)-Cpa-cyclo[D-Cys-Tyr-D-Phe(4-carbamoyl)-Lys(N^ε-Me)-Thr-Cys]-D-Tyr-NH2] (Hexanoyl-[Phe(4-Cl)][dC]Y[dPhe(4-CONH2)][Lys(Me)]TC[dY]-NH2; disulfide 2-7) the figure was 1.6 nM; with `CNCCCC[C@@H]1NC(=O)[C@@H](Cc2ccc(C(N)=O)cc2)NC(=O)[C@H](Cc2ccc(O)cc2)NC(=O)[C@H](NC(=O)[C@H](Cc2ccc(Cl)cc2)NC(=O)CCC(N)=O)CSSC[C@@H](C(=O)N[C@H](Cc2ccc(O)cc2)C(N)=O)NC(=O)[C@H]([C@@H](C)O)NC1=O` [Compound 54, H2N(CO)(CH2)2(CO)-Cpa-cyclo[D-Cys-Tyr-D-Phe(4-carbamoyl)-Lys(N^ε-Me)-Thr-Cys]-D-Tyr-NH2] (Succinamoyl-[Phe(4-Cl)][dC]Y[dPhe(4-CONH2)][Lys(Me)]TC[dY]-NH2; disulfide 2-7), 2.33 nM; with `C[C@@H](O)[C@@H]1NC(=O)[C@H](CCCCN)NC(=O)[C@@H](Cc2ccc(C(N)=O)cc2)NC(=O)[C@H](Cc2ccc(O)cc2)NC(=O)[C@H](NC(=O)[C@@H](N)Cc2ccc(Cl)cc2)CSSC[C@@H](C(=O)N[C@H](Cc2ccc(O)cc2)C(N)=O)N(C)C1=O` [Compound 76, H-Cpa-[DCys- Tyr-DPhe (4-carbamoyl)- Lys-Thr-NMeCys]- DTyr-NH2] (H-[Phe(4-Cl)][dC]Y[dPhe(4-CONH2)]KT[NMeC][dY]-NH2; disulfide 2-7), 400 nM.
Then `C[C@@H](O)[C@@H]1NC(=O)[C@H](CCCCN)NC(=O)[C@@H](Cc2ccc(C(N)=O)cc2)NC(=O)[C@H](Cc2ccc(O)cc2)NC(=O)[C@H](NC(=O)[C@@H](N)Cc2ccc(Cl)cc2)Cc2cn(nn2)C[C@@H](C(=O)N[C@H](Cc2ccc(O)cc2)C(N)=O)NC1=O` [Compound 66] (H-[Phe(4-Cl)][dPra]Y[dPhe(4-CONH2)]KT[Dap(N3)][dY]-NH2; triazole 2-7), with more than 1000 nM; and `CNCCCC[C@@H]1NC(=O)[C@@H](Cc2ccc(C(N)=O)cc2)NC(=O)[C@H](Cc2ccc(O)cc2)NC(=O)[C@H](NC(=O)[C@H](Cc2ccc(Cl)cc2)NC(=O)CC(C)(C)C)CSSC[C@@H](C(=O)N[C@H](Cc2ccc(O)cc2)C(N)=O)NC(=O)[C@H]([C@@H](C)O)NC1=O` [Compound 52, t-BuCH2(CO)-Cpa-cyclo[D-Cys-Tyr-D-Phe(4-carbamoyl)-Lys(N^ε-Me)-Thr-Cys]-D-Tyr-NH2] ({Butanoyl(3,3-Me2)}-[Phe(4-Cl)][dC]Y[dPhe(4-CONH2)][Lys(Me)]TC[dY]-NH2; disulfide 2-7), with 1.73 nM; and `C[C@@H](O)[C@@H]1NC(=O)[C@H](CCCCN)NC(=O)[C@@H](Cc2ccc(C(N)=O)cc2)NC(=O)[C@H](Cc2ccc(O)cc2)NC(=O)[C@@H](NC(=O)[C@@H](N)Cc2ccc(Cl)cc2)CC=CC[C@@H](C(=O)N[C@H](Cc2ccc(O)cc2)C(N)=O)NC1=O` (stereo in doubt) [Compound 68], with more than 1000 nM.
In turn, `COc1ccc(NC(=O)Nc2ccc(C[C@H]3NC(=O)[C@H](Cc4ccc(O)cc4)NC(=O)[C@H](NC(=O)[C@@H](N)Cc4ccc(Cl)cc4)CSSC[C@@H](C(=O)N[C@H](Cc4ccc(O)cc4)C(N)=O)NC(=O)[C@H]([C@@H](C)O)NC(=O)[C@H](CCCCN)NC3=O)cc2)cc1` [Compound 28, H-Cpa-cyclo[DCys- Tyr-D-(4-(4- methoxyphenyl) ureido) Phe-Lys-Thr-Cys]- DTyr-NH2] (H-[Phe(4-Cl)][dC]Y[dPhe(4-NH2)]([CO-NH(4-MeO-phenyl)])KTC[dY]-NH2; disulfide 2-7) registered an IC50 of 104 nM.
As for `CNCCCC[C@@H]1NC(=O)[C@@H](Cc2ccc(C(N)=O)cc2)NC(=O)[C@H](Cc2ccc(O)cc2)NC(=O)[C@H](NC(=O)[C@H](Cc2ccc(Cl)cc2)NC(=O)c2ccccn2)CSSC[C@@H](C(=O)N[C@H](Cc2ccc(O)cc2)C(N)=O)NC(=O)[C@H]([C@@H](C)O)NC1=O` [Compound 53, 2-Pyridyl(CO)-Cpa-cyclo[D-Cys-Tyr-D-Phe(4-carbamoyl)-Lys(N^ε-Me)-Thr-Cys]-D-Tyr-NH2] (Picolinoyl-[Phe(4-Cl)][dC]Y[dPhe(4-CONH2)][Lys(Me)]TC[dY]-NH2; disulfide 2-7), the half-inhibitory concentration (IC50) worked out at 4.28 nM. Compared with the last molecule, the IC50 is about 24-fold lower.
Then `CNCCCC[C@@H]1NC(=O)[C@@H](Cc2ccc(C(N)=O)cc2)NC(=O)[C@H](Cc2ccc(O)cc2)NC(=O)[C@H](NC(=O)[C@H](Cc2ccc(Cl)cc2)NC(=O)c2ccco2)CSSC[C@@H](C(=O)N[C@H](Cc2ccc(O)cc2)C(N)=O)NC(=O)[C@H]([C@@H](C)O)NC1=O` [Compound 57, (Furan-2-carboxy)-Cpa-cyclo[D-Cys-Tyr-D-Phe(4-carbamoyl)-Lys(N^ε-Me)-Thr-Cys]-D-Tyr-NH2] (2Furoyl-[Phe(4-Cl)][dC]Y[dPhe(4-CONH2)][Lys(Me)]TC[dY]-NH2; disulfide 2-7), with 3.65 nM.
The molecule `C[C@@H](O)[C@@H]1NC(=O)[C@H](CCCCN)NC(=O)[C@@H](Cc2ccc(C(N)=O)cc2)NC(=O)[C@H](Cc2ccc(O)cc2)NC(=O)[C@@H](NC(=O)[C@@H](N)Cc2ccc(Cl)cc2)CSSC[C@@H](C(=O)NC(Cc2ccc(O)cc2)C(N)=O)NC1=O` (stereo in doubt) [Compound 39, H-Cpa-cyclo[Cys- Tyr-D-(4- carbamoyl)Phe- Lys-Thr-Cys]- DTyr-NH2] came in with an IC50 of more than 1000 nM.
On to `CC(C)(C)[C@@H]1NC(=O)[C@H](CCCCN)NC(=O)[C@@H](Cc2ccc(C(N)=O)cc2)NC(=O)[C@H](Cc2ccc(O)cc2)NC(=O)[C@H](NC(=O)[C@@H](N)Cc2ccc(Cl)cc2)CSSC[C@@H](C(=O)NC(Cc2ccc(O)cc2)C(N)=O)NC1=O` (stereo partly drawn) [Compound 34, H-Cpa-cyclo[DCys- Tyr-D-4- (carbamoyl)Phe-Lys- tBu-Gly-Cys]-DTyr- NH2] (H-[Phe(4-Cl)][dC]Y[dPhe(4-CONH2)]K[Tle]C[ξY]-NH2; disulfide 2-7), for which the IC50 was found to be 43.4 nM.
The molecule `CNCCCC[C@@H]1NC(=O)[C@@H](Cc2ccc(C(N)=O)cc2)NC(=O)[C@H](Cc2ccc(Cl)cc2)NC(=O)[C@H](NC(=O)[C@@H](N)Cc2ccc(Cl)cc2)CSSC[C@@H](C(=O)NC(Cc2ccc(O)cc2)C(N)=O)NC(=O)[C@H]([C@@H](C)O)NC1=O` (stereo partly drawn) [Compound 48, H-Cpa-cyclo[D-Cys-Cpa-D-Phe(4-carbamoyl)-Lys(N^ε-Me)-Thr-Cys]-D-Tyr-NH2] (H-[Phe(4-Cl)][dC][Phe(4-Cl)][dPhe(4-CONH2)][Lys(Me)]TC[ξY]-NH2; disulfide 2-7) displayed an IC50 of 1.31 nM.
As for `C[C@@H](O)[C@@H]1NC(=O)[C@H](CCCCN)NC(=O)[C@@H](Cc2ccc(NC(=O)Nc3ccccc3)cc2)NC(=O)[C@H](Cc2ccc(O)cc2)NC(=O)[C@H](NC(=O)[C@@H](N)Cc2ccc(Cl)cc2)CNC(=O)C[C@@H](C(=O)N[C@H](Cc2ccc(O)cc2)C(N)=O)NC1=O` [Compound 70] (H-[Phe(4-Cl)][dDap]Y[dPhe(4-NH2)]([CO-NHPh])KTD[dY]-NH2; lactam 2-7), the IC50 was more than 1000 nM.
In turn, `C[C@@H](O)[C@@H]1NC(=O)[C@H](CCCCN)N(C)C(=O)[C@@H](Cc2ccc(C(N)=O)cc2)NC(=O)[C@H](Cc2ccc(O)cc2)NC(=O)[C@H](NC(=O)[C@@H](N)Cc2ccc(Cl)cc2)CSSC[C@@H](C(=O)N[C@H](Cc2ccc(O)cc2)C(N)=O)NC1=O` [Compound 72, H-Cpa-cyclo[DCys- Tyr-D-(4- carbamoyl)Phe- (N-alpha-Me)Lys- Thr-Cys]- DTyr-NH2] (H-[Phe(4-Cl)][dC]Y[dPhe(4-CONH2)][NMeK]TC[dY]-NH2; disulfide 2-7) yielded an IC50 of 5.77 nM.
As for `CNCCCC[C@@H]1NC(=O)[C@@H](CCCNC(N)=O)NC(=O)[C@H](Cc2ccc(O)cc2)NC(=O)[C@H](NC(=O)[C@@H](N)Cc2ccc(Cl)cc2)CSSC[C@@H](C(=O)N[C@H](Cc2ccc(O)cc2)C(N)=O)NC(=O)[C@H]([C@@H](C)O)NC1=O` [Compound 31, H-Cpa-cyclo[DCys- Tyr-D-Cit- (N—Me)Lys-Thr- Cys]-DTyr-NH2] (H-[Phe(4-Cl)][dC]Y[dCit][Lys(Me)]TC[dY]-NH2; disulfide 2-7), the IC50 was found to be 70.4 nM.

The values above are taken from patent US12486302B2, “Somatostatin receptor antagonist compounds and methods of using the same” (CDRD VENTURES INC., priority 2016, dated 2025).
